Source: patent publication US20240383869A1, “ARYLACETYL INHIBITORS OF TG2 AND USES THEREOF” (UNIVERSITY OF OTTAWA, priority 2021, published 2024)
Like-named read-outs stand apart in the source and are kept apart here.

Assays:
FXIIIa = target: T1, FXIIIa (Homo sapiens, UniProt P00488); experiment: Fluorescence isopeptidase activity assay (A101 FRET-quenched probe), isozyme selectivity; type: biochemical; conditions: normalized [I]/α
T1 construct: purchased Zedira
T1 sequence (P00488 39-732 limits assumed): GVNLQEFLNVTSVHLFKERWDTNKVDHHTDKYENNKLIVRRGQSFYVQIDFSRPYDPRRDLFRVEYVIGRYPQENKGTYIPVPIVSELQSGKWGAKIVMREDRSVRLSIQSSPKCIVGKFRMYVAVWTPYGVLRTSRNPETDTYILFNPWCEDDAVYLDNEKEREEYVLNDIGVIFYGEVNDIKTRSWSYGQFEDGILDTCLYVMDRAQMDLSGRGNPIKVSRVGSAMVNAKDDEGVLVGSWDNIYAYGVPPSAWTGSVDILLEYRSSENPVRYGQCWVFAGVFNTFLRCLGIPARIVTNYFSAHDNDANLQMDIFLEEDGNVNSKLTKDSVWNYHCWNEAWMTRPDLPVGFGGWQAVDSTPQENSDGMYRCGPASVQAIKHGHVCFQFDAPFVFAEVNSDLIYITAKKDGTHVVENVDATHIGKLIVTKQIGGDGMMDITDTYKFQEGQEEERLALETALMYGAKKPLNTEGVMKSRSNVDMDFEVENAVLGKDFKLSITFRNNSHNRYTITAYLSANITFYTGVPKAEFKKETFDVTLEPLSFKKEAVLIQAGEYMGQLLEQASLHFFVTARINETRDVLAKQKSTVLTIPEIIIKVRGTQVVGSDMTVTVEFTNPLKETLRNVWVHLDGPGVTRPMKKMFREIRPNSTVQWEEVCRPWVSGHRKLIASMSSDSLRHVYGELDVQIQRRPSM
Protocol: Fluorescence isopeptidase activity assay. The isopeptidase activity of pre-activated TG3a and FXIIIa (purchased from Zedira) was measured via a fluorescence-based assay as described (Kirily, R. et al., “Isopeptidase activity of human transglutaminase 2: disconnection from transamidation and characterization by kinetic parameters.” Amino Acids 2016, 48 (1), 31-40) using the commercially available peptidic FRET quenched probe A101. Briefly, the final concentration in the reaction mixture contained 50 mM Tris (pH 7.0), 10 mM CaCl2, 100 mM NaCl, 2.8 mM TCEP, 50 μM A101 and 14 mM H-Gly-OMe. The reaction was monitored at 25° C. using a BioTek Synergy 4 plate reader (Ex/Em: 318/413 nm). Enzymatic inhibition assays were run under Kitz and Wilson conditions (Kitz, R. and Wilson, I. B., “Esters of methanesulfonic acid as irreversible inhibitors of acetylcholinesterase.” J. Biol. Chem. 1962, 237, 3245-49), which were established for TG3a and FXIIIa at a substrate (A101) concentration of 50 μM using enzyme concentrations of 0.17 μM and 0.11 μM for TG3a and FXIIIa, respectively.

hTG2 = target: T2, hTG2 (Homo sapiens, UniProt P21980); experiment: biochemical; conditions: for Ki: read-out: KI (converted); for inactivation of TG2: isozyme selectivity, normalized [I]/α
T2 sequence (P21980 1-687): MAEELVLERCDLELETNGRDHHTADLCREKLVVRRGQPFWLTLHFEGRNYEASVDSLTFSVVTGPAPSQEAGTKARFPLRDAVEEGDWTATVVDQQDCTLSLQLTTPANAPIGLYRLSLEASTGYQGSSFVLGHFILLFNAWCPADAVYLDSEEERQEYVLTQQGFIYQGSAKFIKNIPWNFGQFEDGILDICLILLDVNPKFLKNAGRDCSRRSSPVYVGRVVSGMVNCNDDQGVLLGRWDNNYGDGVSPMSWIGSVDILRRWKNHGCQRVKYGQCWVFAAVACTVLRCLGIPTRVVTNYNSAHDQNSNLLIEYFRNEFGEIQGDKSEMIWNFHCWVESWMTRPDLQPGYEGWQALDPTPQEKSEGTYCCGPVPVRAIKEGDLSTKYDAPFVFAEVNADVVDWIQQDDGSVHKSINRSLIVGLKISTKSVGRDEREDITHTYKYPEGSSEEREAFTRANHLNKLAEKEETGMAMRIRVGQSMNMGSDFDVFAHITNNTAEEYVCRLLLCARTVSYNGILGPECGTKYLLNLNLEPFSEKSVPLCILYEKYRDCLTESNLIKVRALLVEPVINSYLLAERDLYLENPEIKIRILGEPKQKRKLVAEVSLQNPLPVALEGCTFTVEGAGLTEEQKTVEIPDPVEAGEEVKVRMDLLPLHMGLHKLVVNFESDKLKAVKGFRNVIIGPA
Protocol: The ability of the compounds to inhibit TG2 transamidase activity and the kinetics of TG2 inhibition were investigated using a colorimetric activity assay, as follows:
Colorimetric transamidase activity assay. The activities of hTG1, hTG2 and hTG6 were measured via a colorimetric assay using the chromogenic substrate Cbz-Glu(γ-p-nitrophenyl ester)Gly (AL5), as described (Leblanc, A. et al., “Kinetic studies of guinea pig liver transglutaminase reveal a general-base-catalyzed deacylation mechanism.” Biochemistry 2001, 40 (28), 8335-8342). Assays were conducted at 25° C. in 50 mM MOPS buffer (pH 6.95) containing 7.5 mM CaCl2. […] The substrate AL5 was prepared in as a stock solution in DMSO such that the final concentration of this co-solvent was constant at 2.5% v/v. Stock solutions of the inhibitors were made in water ranging in concentration from 100-500 μM. The reaction was initiated with the addition of enzyme, 0.10 μM hTG1, 0.25 μM hTG2 (4.6 mU/mL) or 0.32 μM hTG6. Formation of hydrolysis product, p-nitrophenolate (pNP), was monitored at 405 nm in a polystyrene 96-well microplate using a BioTek Synergy 4 plate reader. The observed first-order rate constants of inactivation (kobs) were determined via non-linear regression fit to a mono-exponential model (Eqn 1) of absorbance versus time curves. These rate constants (kobs) were in turn fit to a saturation kinetics model (Eqn 2), by non-linear regression, providing the kinetic parameters kinact and KI, as previously described by Stone and Hofsteenge (Stone, S. R. and Hofsteenge, J., “Specificity of activated human protein C.” Biochem. J. 1985, 230 (2), 497-502). […] Experiments were completed in triplicate at minimum.
Fitting of this time-dependent inactivation to a monoexponential equation gave first-order rate constants, kobs. […] In some cases, the kinetic data were fitted to a linear double reciprocal equation.

[1] = fit to saturation kinetics model, 25° C., pH 6.95, 100 μM AL5

| SMILES | inhibition of FXIIIa (FXIIIa) | Ki (hTG2; [1]) [µM] | kinact (hTG2; fit to saturation kinetics model, 25° C., pH 6.95, 100 μM AL5, read-out: kinact (converted)) [s⁻¹] | kinact/KI (hTG2; fit to saturation kinetics model, 25° C., pH 6.95, 100 μM AL5, read-out: kinact/KI (converted)) [M⁻¹ s⁻¹] | inactivation of TG2 (hTG2) | kinact/KI (hTG2; pH 6.95) [M⁻¹ s⁻¹] |
| --- | --- | --- | --- | --- | --- | --- |
| C=CC(=O)NCCCC[C@H](NC(=O)Cc1ccccc1C)C(=O)N1CCN(C(=O)c2cccc3ccccc23)CC1 [Inhibitor 74, (S)-N-(6-(4-(1-naphthoyl)piperazin-1-yl)-5-(2-(2-methylphenyl)acetamido)-6-oxohexyl)acrylamide] | none of these inhibitors showed any detectable inhibition | 6.1 ± 1.8 | 0.035 | 5870 | inactivated TG2 almost completely, in less than five minutes | – |
| C=CC(=O)NCCCC[C@H](NC(=O)OCc1ccccc1)C(=O)N1CCN(C(=O)c2cccc3ccccc23)CC1 [AA9, reference compound] | none of these inhibitors showed any detectable inhibition | – | – | – | inactivated TG2 almost completely, in less than five minutes | 4070 |
| C=CC(=O)NCCCC[C@H](NC(=O)Cc1ccccc1F)C(=O)N1CCN(C(=O)c2cccc3ccccc23)CC1 [Inhibitor 72, (S)-N-(6-(4-(1-naphthoyl)piperazin-1-yl)-5-(2-(2-fluorophenyl)acetamido)-6-oxohexyl)acrylamide] | none of these inhibitors showed any detectable inhibition | 1 ± 0.2 | – | – | inactivated TG2 almost completely, in less than five minutes | – |
